Key:
[1] = test system: Rb-proficient (MDAMB231) and Rb-deficient (BT549 and MDAMB436) TNBC cells; assay: CV proliferation assay, TNBC cells (statements across lines); format: cell-based; details: Rb-proficient and Rb-deficient TNBC cells, CV assay
Method: (§1) Cell proliferation rates were determined using crystal violet assays. One thousand cells per well were plated in 96 well tissue culture plates and treated the following day with a bifunctional compound or control for 7 days in replicates of 8. Cells were fixed with 25% glutaraldehyde for 10 minutes with shaking, washed 5 times with distilled water, stained with a 1% crystal violet solution (solubilized in 25% methanol) for 10 minutes, washed again 5 times and allowed to dry. De-staining was performed using […] sodium citrate in 50% ethanol followed by quantification using a 96 well spectrophotometer set at an absorbance of 550 nm.
as §1, with “using CV” for “using crystal violet”, “assays. Two” for “assays. One”, “thousand (2000) or 4000” for “thousand”, “for 6” for “for 7”, “of 6.” for “of 8.”

[2] = test system: MDAH-2774 and KURAMOCHI ovarian cancer cells; assay: CV proliferation assay, ovarian cancer cells (statements across lines); format: cell-based; details: MDAH-2774 and KURAMOCHI cells
Method: as §1
Based on the potent anti-proliferative activity of ENDX-PROTACs TC-Pr-006, TC-Pr-007, TC-Pr -008, and TC-Pr -009 in TNBC cells, the efficacy of these compounds for inhibiting the growth of ovarian cancer cells was tested. This analysis utilized KURAMOCHI cells, which represent the high-grade serous subtype (the most malignant form that accounts for 70% of all ovarian cancers and associates with poor clinical outcome) and MDAH-2774 cells, which represent endometrioid ovarian cancer and accounts for 20% of all ovarian cancer. PKCβ1 was confirmed to be expressed in both ovarian cancer cell line models, with MDAH-2774 cells expressing higher amounts of PKCβ1 compared to KURAMOCHI cells (FIG. 5A).

For `CC/C(=C(\c1ccc(O)cc1)c1ccc(OCCNC)cc1)c1ccccc1` [ENDX, endoxifen, reference compound], the “concentration inhibiting growth of TNBC cells” value [1] was > 5 µM and the “concentration inhibiting growth of ovarian cancer cells” value [2] was 10 µM.

— US20240058318A1, “DEGRADING PKCB1 TO TREAT CANCER” (Mayo Foundation for Medical Education and Research, priority 2020, published 2024)
